Reference: patent US20260364080A1, “PYRAZOLO-PYRIMIDINONE COMPOUNDS FOR USE IN METHODS OF INHIBITING WEE1 A KINASE” (Acrivon Therapeutics, Inc., priority 2023, published 2026)

Experiments:
[1] = biological target: T1, recombinant human Wee1A kinase (Homo sapiens, UniProt P30291); experiment: Wee1A kinase binding assay (LanthaScreen Eu time-resolved FRET); conditions: 30 nM tracer 178, 5 nM Wee1A kinase, 2 nM Eu-labeled antibody; 60 minutes at room temperature; read-out: Wee1A kinase Binding IC50
T1 construct: full length Wee1 kinase was expressed by baculovirus in insect cells; purchased Invitrogen PV3817; host or cells: insect cells (baculovirus)
Procedure, shortened: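 Full-length, baculovirus-expressed GST-tagged Wee1A (5 nM) was mixed with 2 nM Eu-anti-GST antibody, 30 nM kinase tracer 178 and compound (1% DMSO). Buffer was 50 mM HEPES pH 7.5, 10 mM MgCl2, 1 mM EGTA, 0.01% Brij-35, incubated 60 min at room temperature. TR-FRET 665/615 nm emission ratios from duplicates were curve-fitted.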

[2] = biological target: T2, Myt1 kinase (recombinant PMYT-1) (Homo sapiens, UniProt Q99640); experiment: Myt1 kinase binding assay (LanthaScreen Eu Kinase Binding Assay); conditions: 3 nM tracer 178, 2.5 nM PMYT-1, 1 nM Eu-labeled antibody; read-out: Myt1 kinase Binding IC50
T2 construct: full length PMYT-1 was expressed by baculovirus in insect cells; purchased Invitrogen A30984; host or cells: insect cells (baculovirus)
T2 sequence (Q99640 1-499): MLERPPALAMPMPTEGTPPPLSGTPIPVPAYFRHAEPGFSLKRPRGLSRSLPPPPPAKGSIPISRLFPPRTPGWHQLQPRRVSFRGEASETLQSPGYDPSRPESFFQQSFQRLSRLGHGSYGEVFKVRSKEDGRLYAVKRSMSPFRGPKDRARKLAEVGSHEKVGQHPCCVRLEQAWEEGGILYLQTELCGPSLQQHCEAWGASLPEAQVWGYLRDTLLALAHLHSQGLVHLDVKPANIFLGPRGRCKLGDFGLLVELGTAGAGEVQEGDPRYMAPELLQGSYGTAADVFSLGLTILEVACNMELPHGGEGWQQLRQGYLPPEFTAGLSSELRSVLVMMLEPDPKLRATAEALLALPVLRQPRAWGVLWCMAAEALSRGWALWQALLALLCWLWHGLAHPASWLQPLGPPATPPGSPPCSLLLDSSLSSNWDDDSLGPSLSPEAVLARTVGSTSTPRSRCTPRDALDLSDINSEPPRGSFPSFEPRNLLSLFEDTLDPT
Procedure, shortened: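 Compound binding to Myt1 kinase was assessed using the LanthaScreen Eu Kinase Binding Assay. This europium-based binding format was applied to quantify how strongly each compound bound to the Myt1 enzyme, and the binding affinity was reported for each compound as an IC50 value.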

[3] = biological target: T3, Wee1A kinase (CDK1 Tyr15 phosphorylation in ACHN renal cell carcinoma cells) (Homo sapiens, UniProt P30291); experiment: High-content imaging of pCdk1 Y15, Wee1A kinase target engagement in ACHN cells; format: cell-based; conditions: 4 h treatment, nuclear positivity for pCdk1 Y15 vs DMSO control, read-out: CDK1 Tyr15 Phosphorylation EC50
T3 construct: pCDK1 Tyr15 immunofluorescence read-out
Procedure, shortened: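 EC50 values come from the per-well fraction of cells with nuclear pCdk1 Y15 staining, normalised to DMSO control, by automated immunofluorescence imaging. Cells were ACHN renal carcinoma, treated 4 h with compound at 7–5,000 nM or 0.3–200 nM.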

T3 sequence (P30291 whole entry): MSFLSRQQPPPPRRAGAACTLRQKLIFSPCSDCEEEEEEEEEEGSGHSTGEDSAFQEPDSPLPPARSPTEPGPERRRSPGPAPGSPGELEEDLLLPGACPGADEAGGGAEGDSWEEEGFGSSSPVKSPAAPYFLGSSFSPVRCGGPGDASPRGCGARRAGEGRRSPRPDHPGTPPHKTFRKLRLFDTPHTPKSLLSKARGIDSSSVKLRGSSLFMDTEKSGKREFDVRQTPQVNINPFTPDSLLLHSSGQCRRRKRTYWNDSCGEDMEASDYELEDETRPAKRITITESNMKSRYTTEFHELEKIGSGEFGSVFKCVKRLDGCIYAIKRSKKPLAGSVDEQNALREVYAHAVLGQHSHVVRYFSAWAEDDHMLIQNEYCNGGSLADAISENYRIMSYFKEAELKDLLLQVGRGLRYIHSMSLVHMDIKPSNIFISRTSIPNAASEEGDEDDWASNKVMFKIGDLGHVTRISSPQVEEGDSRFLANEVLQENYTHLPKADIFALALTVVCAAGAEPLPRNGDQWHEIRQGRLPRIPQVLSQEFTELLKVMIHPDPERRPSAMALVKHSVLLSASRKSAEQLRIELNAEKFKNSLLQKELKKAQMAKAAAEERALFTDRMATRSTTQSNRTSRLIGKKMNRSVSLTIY
T1 sequence (P30291 whole entry): as above

Structure (SMILES)	IC50 [1] [nM]	IC50 [2] [nM]	EC50 [3] [nM]
C=CCn1c(=O)c2cnc(Nc3cncc(Cl)c3)nc2n1-c1cccc(OC2CCN(C)CC2)n1 [Compound 323, 2-allyl-6-(5-chloro-3-pyridylamino)-1-[6-(1-methyl-4-piperidyloxy)-2-pyridyl]-1,2-dihydro-3H-1,2,5,7-tetraazainden-3-one]	< 10	20 to 100	100 to 500
C=CCn1c(=O)c2cnc(Nc3ccc4nccn4c3)nc2n1-c1cccc(OC2CCNCC2)n1 [Compound 324, 6-(1,3a-diaza-5-indenylamino)-2-allyl-1-[6-(4-piperidyloxy)-2-pyridyl]-1,2-dihydro-3H-1,2,5,7-tetraazainden-3-one]	< 10	20 to 100	> 1000
C=CCn1c(=O)c2cnc(Nc3cncc(F)c3)nc2n1-c1cccc(OC2CCN(C)CC2)n1 [Compound 327, 2-allyl-6-(5-fluoro-3-pyridylamino)-1-[6-(1-methyl-4-piperidyloxy)-2-pyridyl]-1,2-dihydro-3H-1,2,5,7-tetraazainden-3-one]	< 10	20 to 100	100 to 500
C=CCn1c(=O)c2cnc(Nc3ccc4nccn4c3)nc2n1-c1cccc(OC2CCN(C)CC2)n1 [Compound 328, 6-(1,3a-diaza-5-indenylamino)-2-allyl-1-[6-(1-methyl-4-piperidyloxy)-2-pyridyl]-1,2-dihydro-3H-1,2,5,7-tetraazainden-3-one]	< 10	20 to 100	100 to 500
C=CCn1c(=O)c2cnc(Nc3cncc(F)c3)nc2n1-c1cccc(OC2CCNCC2)n1 [Compound 329, 2-allyl-6-(5-fluoro-3-pyridylamino)-1-[6-(4-piperidyloxy)-2-pyridyl]-1,2-dihydro-3H-1,2,5,7-tetraazainden-3-one]	< 10	20 to 100	500 to 1000
C=CCn1c(=O)c2cnc(Nc3cncc(C#N)c3)nc2n1-c1cccc(OC2CCN(C)CC2)n1 [Compound 330, 5-[(1-{6-[(1-methylpiperidin-4-yl)oxy]pyridin-2-yl}-3-oxo-2-(prop-2-en-1-yl)-1H,2H,3H-pyrazolo[3,4-d]pyrimidin-6-yl)amino]pyridine-3-carbonitrile]	< 10	100 to 500	100 to 500
C=CCn1c(=O)c2cnc(Nc3ccc4c(cnn4C)c3)nc2n1-c1cccc(OC2CCNC(C)(C)C2)n1 (stereo not drawn) [Compound 337, 2-allyl-1-(6-((2,2-dimethylpiperidin-4-yl)oxy)pyridin-2-yl)-6-((1-methyl-1H-indazol-5-yl)amino)-1,2-dihydro-3H-pyrazolo[3,4-d]pyrimidin-3-one]	< 10	100 to 500	< 100
CCn1c(=O)c2cnc(Nc3cccc(-c4ccccc4)c3)nc2n1-c1cccc(OC2CCNCC2)n1 [Compound 338, 6-(3-biphenylylamino)-2-ethyl-1-[6-(4-piperidyloxy)-2-pyridyl]-1,2-dihydro-3H-1,2,5,7-tetraazainden-3-one]	< 10	20 to 100	> 1000
CCn1c(=O)c2cnc(Nc3cccc(-c4ccccc4)c3)nc2n1-c1cccc(OC2CCN(C)CC2)n1 [Compound 339, 6-(3-biphenylylamino)-2-ethyl-1-[6-(1-methyl-4-piperidyloxy)-2-pyridyl]-1,2-dihydro-3H-1,2,5,7-tetraazainden-3-one]	< 10	20 to 100	> 1000
CCn1c(=O)c2cnc(Nc3cccc(-c4cnn(C)c4)c3)nc2n1-c1cccc(OC2CCNCC2)n1 [Compound 340, 2-ethyl-6-[m-(1-methyl-4-pyrazolyl)phenylamino]-1-[6-(4-piperidyloxy)-2-pyridyl]-1,2-dihydro-3H-1,2,5,7-tetraazainden-3-one]	< 10	100 to 500	> 1000
C=CCn1c(=O)c2cnc(Nc3cncc(OC)c3)nc2n1-c1cccc(OC2CCN(C)CC2)n1 [Compound 342, 6-[(5-methoxypyridin-3-yl)amino]-1-{6-[(1-methylpiperidin-4-yl)oxy]pyridin-2-yl}-2-(prop-2-en-1-yl)-1H,2H,3H-pyrazolo[3,4-d]pyrimidin-3-one]	< 10	20 to 100	100 to 500
C=CCn1c(=O)c2cnc(Nc3ccc4c(cnn4C)c3)nc2n1-c1cccc(OC2CCN(C)C(C)(C)C2)n1 (stereo not drawn) [Compound 343, 2-allyl-6-((1-methyl-1H-indazol-5-yl)amino)-1-(6-((1,2,2-trimethylpiperidin-4-yl)oxy)pyridin-2-yl)-1,2-dihydro-3H-pyrazolo[3,4-d]pyrimidin-3-one]	< 10	100 to 500	100 to 500
C=CCn1c(=O)c2cnc(Nc3ccc4[nH]nc(C)c4c3)nc2n1-c1cccc(OC2CCNCC2)n1 [Compound 345, 2-allyl-6-((3-methyl-1H-indazol-5-yl)amino)-1-(6-(piperidin-4-yloxy)pyridin-2-yl)-1,2-dihydro-3H-pyrazolo[3,4-d]pyrimidin-3-one]	< 10	20 to 100	500 to 1000
C=CCn1c(=O)c2cnc(Nc3ccc4c(c3)c(C)nn4C)nc2n1-c1cccc(OC2CCNCC2)n1 [Compound 347, 2-allyl-6-((1,3-dimethyl-1H-indazol-5-yl)amino)-1-(6-(piperidin-4-yloxy)pyridin-2-yl)-1,2-dihydro-3H-pyrazolo[3,4-d]pyrimidin-3-one]	< 10	20 to 100	< 100
C=CCn1c(=O)c2cnc(Nc3ccc(F)cc3)nc2n1-c1ccnc(OC2CCN(C)CC2)n1 [Compound 348, 2-allyl-6-((4-fluorophenyl)amino)-1-(2-((1-methylpiperidin-4-yl)oxy)pyrimidin-4-yl)-1,2-dihydro-3H-pyrazolo[3,4-d]pyrimidin-3-one]	< 10	20 to 100	< 100
C=CCn1c(=O)c2cnc(Nc3ccc4c(cnn4C)c3)nc2n1-c1ccnc(OC2CCNCC2)n1 [Compound 350, 2-allyl-6-((1-methyl-1H-indazol-5-yl)amino)-1-(2-(piperidin-4-yloxy)pyrimidin-4-yl)-1,2-dihydro-3H-pyrazolo[3,4-d]pyrimidin-3-one]	< 10	100 to 500	100 to 500
CCn1c(=O)c2cnc(Nc3cccc(-c4cccnc4)c3)nc2n1-c1cccc(OC2CCN(C)CC2)n1 [Compound 352, 2-ethyl-1-[6-(1-methyl-4-piperidyloxy)-2-pyridyl]-6-[m-(3-pyridyl)phenylamino]-1,2-dihydro-3H-1,2,5,7-tetraazainden-3-one]	< 10	20 to 100	< 100
CCn1c(=O)c2cnc(Nc3ccc4c(ccn4C)c3)nc2n1-c1cccc(OC2CCNCC2)n1 [Compound 353, 2-ethyl-6-((1-methyl-1H-indol-5-yl)amino)-1-(6-(piperidin-4-yloxy)pyridin-2-yl)-1,2-dihydro-3H-pyrazolo[3,4-d]pyrimidin-3-one]	< 10	20 to 100	< 100
C=CCn1c(=O)c2cnc(Nc3ccc4c(cnn4CC(C)C)c3)nc2n1-c1cccc(OC2CCNCC2)n1 [Compound 356, 2-allyl-6-((1-isobutyl-1H-indazol-5-yl)amino)-1-(6-(piperidin-4-yloxy)pyridin-2-yl)-1,2-dihydro-3H-pyrazolo[3,4-d]pyrimidin-3-one]	< 10	< 20	< 100
CCn1c(=S)c2cnc(Nc3ccc4c(cnn4C)c3)nc2n1-c1cccc(OC2CCN(C)CC2)n1 [Compound 362, 2-ethyl-6-[(1-methyl-1H-indazol-5-yl)amino]-1-{6-[(1-methylpiperidin-4-yl)oxy]pyridin-2-yl}-1H,2H,3H-pyrazolo[3,4-d]pyrimidine-3-thione]	< 10	100 to 500	100 to 500
C=CCn1c(=O)c2cnc(Nc3cccc(-n4cccn4)c3)nc2n1-c1cccc(OC2CCNCC2)n1 [Compound 363, 2-allyl-1-[6-(4-piperidyloxy)-2-pyridyl]-6-[m-(1-pyrazolyl)phenylamino]-1,2-dihydro-3H-1,2,5,7-tetraazainden-3-one]	< 10	20 to 100	100 to 500
